Patent US20250223610A1, “MEASUREMENT OF SOMATIC L1 RETROTRANSPOSITION ACTIVITY” (SZEGEDI BIOLÓGIAI KUTATÓKÖZPONT, priority 2022, published 2025)
Entries after “also recorded” stand apart in the source; their conditions may differ. Values belong to the molecule of their own block, whether it stands above or below them.

What was measured:
[1] = system: somatic L1 retrotransposition; assay: FACS measurement of EGFP-positive hepatocytes isolated from ORFeus carrying Fah-/- mice; conditions: 1 million hepatocytes per sample; Decitabine 1 mg/kg IP twice weekly
Description: For evaluating alternative detection methods we investigated the outcome of Decitabine (5-aza-2′-deoxycytidine) treatments in the assay of the invention. 10 Fah^−/− animals were injected hydrodynamically and after NTBC withdrawal, 5 were started on Decitabine and 5 animals were kept without drug treatment as a control group. Under our current drug treatment regime administration of drugs starts at the same time as NTBC withdrawal.
To test this approach, 2-2 animals from Decitabine-treated and control experimental groups were subjected to liver perfusion and hepatocyte isolation.
Mice were housed under 12 h light-dark cycle at 22° C. with free access to water and regular rodent chow. […] Fah^−/− mice were treated with 8 mg/l Orfadin® (Nitisinone, NTBC) (Swedish Orphan Biovitrum) in drinking water. NTBC was withdrawn after hydrodynamic plasmid delivery. […] Dosing, scheduling, and the route of administration of all drugs and chemical compounds were determined according to the manufacturer's instructions and literature data. […] The body weight of the mice was monitored continuously. […]
Procurement of liver for hepatocyte isolation was done under sodium pentobarbital (Nembutal) (Sigma Aldrich) anaesthesia. […] Cell numbers were determined using a Burker chamber. Cell viability was determined by trypan blue exclusion test. […]

[2] = system: somatic L1 retrotransposition; assay: SYBR Green-based intronless EGFP qPCR on liver DNA of ORFeus reporter bearing Fah-/- mice; assay type: in vivo; conditions: 1 mg/kg IP twice weekly from NTBC withdrawal; liver samples after three months; preliminary results
Description: Multiple qPCR-based methods have already been published offering the possibility to measure the amount of intron-free EGFP copies produced during retrotransposition of the ORFeus reporter (Mita, Sun et al. 2020). Based on these published methods, we have also started to quantify our results.
NTBC was withdrawn after hydrodynamic plasmid delivery.
To measure the retrotransposition events of the synthetic L1 element we carried out genomic exon-exon junction qPCR analysis of the spliced, intronless EGFP using two different qPCR detection chemistry. SYBR Green based qPCR was done using PerfeCTa SYBR Green SuperMix (Quantabio). Cycling conditions were as follows: 95° C. for 7 min, 4 cycles of 10 s at 95° C., 15 s at 66° C. (−1° C./cycle, no acquisition), followed by 40 cycles of 5 s at 95° C., 10 s at 62° C. The following primers were used: […]
Probe-based qPCR detection was done as previously described (Mita, Sun et al. 2020) using PerfeCTa qPCR ToughMix (Quantabio). All qPCR reactions were performed on a Rotor-Gene Q instrument (Qiagen) in triplicates using 87 ng of gDNA. Analysis was carried out with the Rotor-Gene Q software (Qiagen). Relative changes in expression levels were calculated using the ΔCT method (Livak and Schmittgen 2001) SYBR Green and probe-based qPCR results were normalized to measurements of the Olfr16 and Rpl21 internal control genes, respectively.

[3] = system: somatic L1 retrotransposition; assay: Stereomicroscopic macrovisualization of EGFP positive hepatocyte colonies in liver of Fah-/- mice carrying the ORFeus reporter; assay type: in vivo; conditions: 5 mg/kg IP twice weekly from NTBC withdrawal; livers examined after 3 months
Description: In these proof of concept studies the present inventors have used an L1-ORF2-free ORFeus and amiR-free construct variant (shown in FIG. 3B). First, the ORFeus-expressing transposon and the hyperPB transposase helper plasmid were co-delivered hydrodynamically into the liver of Fah^−/− mice, then the curative drug nitisinone (NTBC) was withdrawn (FIG. 2A). In those hepatocytes where hydrodynamic transfection is successful, the hyperactive transposase helper enzyme is likely to catalyse the “cut and paste” transposition reaction presumably leading to an integration into the host chromosomes (Skipper, Andersen et al. 2013).
FICZ was administered by intraperitoneal (IP) injection at a dose of 5 mg/kg body weight twice weekly. […]
The results of EGFP macrovisualization were summarized in FIG. 5 for the control, FICZ-treated and MeIQx-treated experimental groups. The number of EGFP-positive hepatocyte cell colonies detectable by stereomicroscopy in the liver of each animal was counted and per-animal values were plotted on a box diagram. […]
Pictures of whole mouse livers were taken with an Olympus SZX12 fluorescence stereozoom microscope equipped with a 100 W mercury lamp and filter sets for selective excitation and emission of GFP and mCherry.

[4] = system: Tp53 gene; assay: Tp53 silencing by amiR element; design: species or system mouse
Description: For example, silencing of the Tp53 gene can attenuate the P53 L1 sensor (Ardeljan, Steranka et al. 2020) (FIG. 1B), without completely inactivating it. Such an effect is predicted to increase the tolerance of somatic cells to ORFeus reporter expression. We have developed three efficient Tp53 silencing amiR elements. Of these, amiR-mP53/1 capable to produce approximately 20% remaining Tp53 gene expression is currently being tested in our laboratory. Presumably, it will be able to increase the sensitivity of the somatic L1 activity measuring system. However, its application is not essential. Our results so far, at least in our in vivo system, are in conflict with the finding of the authors describing the role of the P53 sensor stating that wild-type retinal pigment epithelium-1 (RPE) cells undergo a TP53-dependent growth arrest in response to L1 (Ardeljan, Steranka et al. 2020). In contrast, ORFeus expressing mouse liver cells are able to regenerate the liver in the absence of p53 silencing (FIG. 3B).

induction of somatic L1 retrotransposition (amount of intron-free EGFP copies, normalized to Olfr16) [2]: weak inducer
Molecule: Nc1ncn([C@H]2C[C@H](O)[C@@H](CO)O2)c(=O)n1 [Decitabine, 5-aza-2′-deoxycytidine]
number of EGFP-expressing cells by FACS compared to controls [1]: higher number; also recorded: confirmed the results obtained with qPCR

Molecule: O=Cc1c2c(cc3c1=Nc1ccccc1-3)=Nc1ccccc1-2 [FICZ, 6-Formylindolo[3,2-b]carbazole]
number of EGFP fluorescent (ORFeus retrotransposition bearing) hepatocyte colonies in liver as compared to non-drug-treated controls [3]: more EGFP fluorescent colonies; also recorded: higher number

Molecule: Cc1cnc2ccc3c(nc(N)n3C)c2n1 [MeIQx, 2-Amino-3,8-Dimethylimidazo[4,5.f]Quinoxaline]
number of EGFP fluorescent (ORFeus retrotransposition bearing) hepatocyte colonies in liver as compared to non-drug-treated controls [3]: higher number

B1: amiR-mP53/1: Tp53 silencing artificial microRNA (amiR) element, SEQ ID NO: 19 (nucleic acid)
DNA: GGGCCCGTGTACCGGTGTGTGAGCTCTGTTTGAATGAGGCTTCAGTACTTTACAGAATCGTTGCCTGCACATCTTGGAAACACTTGCTGGGATTACTTCTTCAGGTTAACCCAACAGAAGGCTCGAGAAGGTATATTGCTGTTGACAGTGAGCGATCACTGCATGGACGATCTGTTTAGTGAAGCCACAGATGTAAACAGATCGTCCATGCAGTGAGTGCCTACTGCCTCGGACTTCAAGGGGCTACTTTAGGAGCAATTATCTTGTTTACTAAAACTGAATACCTTGCTATCTCTTTGATACATTTTTACAAAGCTGAATTAAAATGGTATAAATTAAATCACTTTGTCGACGTGTTCTAGAGTGTGCCGGC
modifications: misc_feature 27..121 Endogenous miR30a 5' flanking; misc_feature 155..176 Target with N1 A mismatch; stem_loop 177..195 loop; misc_feature 196..217 guide; misc_feature 238..347 Endogenous miR30a 3' flanking; amiR-mP53/1 element
remaining Tp53 gene expression [4]: approximately 20%
